Results reported in patent publication US8829010B2, “Pyrazolo[3,4-d]pyrimidine compounds and their use as PDE2 inhibitors and/or CYP3A4 inhibitors” (Pfizer Inc., priority 2011, dated 2014).
“And” between values parts separate entries of the source, which are not always exact repeats. Identical values can stand only once. Like-named read-outs stand apart in the source and are kept apart here.

How the values were obtained:
[1] = target: T1, human full-length PDE2A3 enzyme (Homo sapiens (Human), UniProt O00408); assay: Recombinant human PDE2A3 inhibition by [3H]-cGMP scintillation proximity assay (SPA); format: biochemical
T1 sequence (O00408 whole entry): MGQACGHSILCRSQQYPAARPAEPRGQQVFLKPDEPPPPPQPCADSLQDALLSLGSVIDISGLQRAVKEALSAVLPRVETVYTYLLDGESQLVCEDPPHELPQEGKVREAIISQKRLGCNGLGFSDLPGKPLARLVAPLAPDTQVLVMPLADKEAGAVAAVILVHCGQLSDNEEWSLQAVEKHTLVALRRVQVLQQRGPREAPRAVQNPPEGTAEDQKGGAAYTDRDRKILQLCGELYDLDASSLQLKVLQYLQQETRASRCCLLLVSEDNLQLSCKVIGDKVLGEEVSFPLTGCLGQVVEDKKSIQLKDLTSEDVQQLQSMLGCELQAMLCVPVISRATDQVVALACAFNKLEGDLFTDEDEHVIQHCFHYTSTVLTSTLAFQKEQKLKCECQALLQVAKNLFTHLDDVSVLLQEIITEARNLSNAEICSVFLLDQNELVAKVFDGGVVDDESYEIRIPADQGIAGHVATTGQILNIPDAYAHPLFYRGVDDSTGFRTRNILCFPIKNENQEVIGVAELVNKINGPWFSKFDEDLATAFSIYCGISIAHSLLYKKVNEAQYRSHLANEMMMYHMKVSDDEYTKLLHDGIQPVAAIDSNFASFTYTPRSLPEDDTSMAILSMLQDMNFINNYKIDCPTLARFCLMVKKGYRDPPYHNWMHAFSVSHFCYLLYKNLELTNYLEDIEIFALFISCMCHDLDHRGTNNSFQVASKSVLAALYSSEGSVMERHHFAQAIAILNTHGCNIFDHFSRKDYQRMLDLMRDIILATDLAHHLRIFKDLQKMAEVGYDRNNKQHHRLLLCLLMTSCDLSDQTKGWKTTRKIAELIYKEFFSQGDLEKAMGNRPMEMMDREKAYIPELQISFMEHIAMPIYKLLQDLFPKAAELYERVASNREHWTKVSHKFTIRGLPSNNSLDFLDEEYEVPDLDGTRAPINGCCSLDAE

[2] = target: T1, human full-length PDE2A3 enzyme; details: literature values; IC50 values obtained were within 3× of these; read-out: PDE2 IC50, literature values of control compounds; cited from earlier work
CYP3A4 = CYP3A4 (Homo sapiens (Human), UniProt P08684); assay: biochemical
Chain of CYP3A4 (P08684 whole entry): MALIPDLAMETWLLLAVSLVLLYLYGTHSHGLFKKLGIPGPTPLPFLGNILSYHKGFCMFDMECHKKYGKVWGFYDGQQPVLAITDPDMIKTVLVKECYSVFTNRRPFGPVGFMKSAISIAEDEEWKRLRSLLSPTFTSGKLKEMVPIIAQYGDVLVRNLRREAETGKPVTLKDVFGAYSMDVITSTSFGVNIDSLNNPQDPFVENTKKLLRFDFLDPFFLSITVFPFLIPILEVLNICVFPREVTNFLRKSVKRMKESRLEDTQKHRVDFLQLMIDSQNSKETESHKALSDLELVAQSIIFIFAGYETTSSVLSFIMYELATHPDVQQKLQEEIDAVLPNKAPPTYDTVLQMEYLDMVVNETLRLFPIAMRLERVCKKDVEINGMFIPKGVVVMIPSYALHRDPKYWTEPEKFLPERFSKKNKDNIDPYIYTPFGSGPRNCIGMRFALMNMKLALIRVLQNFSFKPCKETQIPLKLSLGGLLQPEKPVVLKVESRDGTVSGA

CYP3A5 = CYP3A5 (Homo sapiens (Human), UniProt P20815); assay: biochemical
Chain of CYP3A5 (P20815 whole entry): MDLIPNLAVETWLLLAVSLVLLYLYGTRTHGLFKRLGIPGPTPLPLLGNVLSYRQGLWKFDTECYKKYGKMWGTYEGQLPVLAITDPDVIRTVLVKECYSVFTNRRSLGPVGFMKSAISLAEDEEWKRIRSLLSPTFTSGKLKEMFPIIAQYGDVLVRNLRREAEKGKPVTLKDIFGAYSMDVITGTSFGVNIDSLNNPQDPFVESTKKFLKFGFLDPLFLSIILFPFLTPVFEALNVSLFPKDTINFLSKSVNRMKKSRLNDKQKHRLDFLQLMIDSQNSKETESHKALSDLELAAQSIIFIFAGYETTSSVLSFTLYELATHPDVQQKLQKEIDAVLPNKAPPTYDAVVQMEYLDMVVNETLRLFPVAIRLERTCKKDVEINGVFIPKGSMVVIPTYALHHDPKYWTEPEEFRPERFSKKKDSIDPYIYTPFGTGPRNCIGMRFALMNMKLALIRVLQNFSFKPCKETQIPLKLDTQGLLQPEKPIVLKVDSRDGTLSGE

CYP3A4 versus CYP3A5 = CYP3A4 versus CYP3A5 (Homo sapiens (Human), UniProt P08684); assay: in vitro
Chain of CYP3A4 versus CYP3A5 (P08684 whole entry): as the sequence (P08684 whole entry) above

[3] = Geometric mean of 2-5 determinations unless otherwise indicated (a: single determination; b: 7-8 determinations)

IC50 (CYP3A4)	IC50 (CYP3A5)	IC50 [1, 3]	Molecule	other results
			3-[5-(4-chloro-3- fluorophenyl)-1- methyl-1H-pyrazol- 4-yl]-1-methyl-4-[3- (1-methyl-1H- pyrazol-3- yl)azetidin-1-yl]-1H- pyrazolo[3,4- d]pyrimidine [Example 19]	IC50 [1]: < 2.87 nM
			CCCCCC[C@@H]([C@@H](C)O)n1cnc2c(N)ncnc21 (racemic) [EHNA, erythro-9-(2-hydroxy-3-nonyl) adenine]	IC50 [2]: 1700 nM
65.3 nM and 122 nM	9690 nM		Cc1ccc(-c2c(-c3nn(C)c4ncnc(N5CC[C@H](N6CCCCC6)C5)c34)cnn2C)cc1 [Example 2, 1-Methyl-3-[1-methyl-5-(4-methylphenyl)-1H-pyrazol-4-yl]-4-[(3S)-3-(piperidin-1-yl)pyrrolidin-1-yl]-1H-pyrazolo[3,4-d]pyrimidine]	
		< 1.31 nM	Cn1ncc(-c2nn(C)c3ncnc(N4CC(F)C4)c23)c1-c1ccc(C2CC2)cc1 [Example 3, 3-[5-(4-Cyclopropylphenyl)-1-methyl-1H-pyrazol-4-yl]-4-(3-fluoroazetidin-1-yl)-1-methyl-1H-pyrazolo[3,4-d]pyrimidine]	
		< 2.11 nM	COC(=O)NC1CN(c2ncnc3c2c(-c2cnn(C)c2-c2ccc(C4CC4)cc2)nn3C)C1 [Example 23, methyl (1-{3-[5-(4-cyclopropylphenyl)-1-methyl-1H-pyrazol-4-yl]-1-methyl-1H-pyrazolo[3,4-d]pyrimidin-4-yl}azetidin-3-yl)carbamate]	
39.7 nM and 71.1 nM	3470 nM and 6960 nM		CCc1ccc(-c2c(-c3nn(C)c4ncnc(N5CC[C@H](N6CCCCC6)C5)c34)cnn2C)cc1 [Example 56, 3-[5-(4-ethylphenyl)-1-methyl-1H-pyrazol-4-yl]-1-methyl-4-[(3S)-3-(piperidin-1-yl)pyrrolidin-1-yl]-1H-pyrazolo[3,4-d]pyrimidine]	inhibition at 0.316 µM ([1]; at 316 nM, single determination): 41%; selectivity ratio (CYP3A4 versus CYP3A5; probe midazolam): 87; selectivity ratio (CYP3A4 versus CYP3A5; probe testosterone): 98
